Test results from publication PMC12754617, “Ruthenium-enhanced curcumin derivatives target tumor growth and cancer-related inflammation in head and neck cancer models” (Frontiers in Oncology, 2025).
Values after ≈ are worked out from the molar mass of the structure shown.

Legend:
[1] = test system: NF-κB in THP1-Blue NF-κB cells; test: NF-κB activity assay (SEAP reporter, LPS-induced); type: cell-based; settings: 20 μM, LPS 10 ng/mL
Experimental: THP1-Blue NF-κB cells, NF-κB secreted embryonic alkaline phosphatase (SEAP) reporter monocytes (InvivoGen, USA), were assayed after 20–24 h of incubation following the manufacturer’s protocol. Briefly, cells were seeded at 1 × 10^6 cells/mL in RPMI medium in 96-well plates (180 μL) and treated with complex 3 or 4, Lipopolysaccharide (LPS) (10 ng/mL; […] The next day, NF-κB activation was assessed via the secretion of SEAP. Supernatants (20 μL) were transferred to 96-well plates, and 180 μL of Quanti-Blue was added. Plates were incubated for 2 h at 37°C, and absorbance was measured at 600 nm using an […] 200 PRO microplate reader (TECAN, Switzerland).

THP1-Blue NF-κB cells = test: MTT viability assay of THP1-Blue NF-κB cells; type: cell-based; settings: concentrations of the NF-κB activity assay, overnight
Experimental: A total of 20 μL of sterile filtered MTT (Sigma-Aldrich, Merck, Germany) solution (5 mg/mL in PBS) was added to the remaining overnight culture of THP1-Blue NF-κB cells from the above NF-κB activity assay in 96-well plates, which were incubated at 37°C (see above). After 2 h of incubation at 37°C, the supernatant was removed, and the purple formazan product generated in the cells was dissolved by the addition of 100 μL of DMSO to each well. The plates were then gently shaken for 30 s at room temperature to dissolve the precipitates. The absorbance was measured at 570 nm using an […] 200 PRO microplate reader (TECAN, Switzerland) ([43]).

IKKβ = target: T1, IKKβ (Homo sapiens, UniProt O14920); test: IKKβ inhibition assay (IKKβ Kinase Assay Kit); type: biochemical; settings: fivefold higher concentration than 1 μM
T1 construct: purchased BPS Bioscience
T1 sequence (O14920 1-756): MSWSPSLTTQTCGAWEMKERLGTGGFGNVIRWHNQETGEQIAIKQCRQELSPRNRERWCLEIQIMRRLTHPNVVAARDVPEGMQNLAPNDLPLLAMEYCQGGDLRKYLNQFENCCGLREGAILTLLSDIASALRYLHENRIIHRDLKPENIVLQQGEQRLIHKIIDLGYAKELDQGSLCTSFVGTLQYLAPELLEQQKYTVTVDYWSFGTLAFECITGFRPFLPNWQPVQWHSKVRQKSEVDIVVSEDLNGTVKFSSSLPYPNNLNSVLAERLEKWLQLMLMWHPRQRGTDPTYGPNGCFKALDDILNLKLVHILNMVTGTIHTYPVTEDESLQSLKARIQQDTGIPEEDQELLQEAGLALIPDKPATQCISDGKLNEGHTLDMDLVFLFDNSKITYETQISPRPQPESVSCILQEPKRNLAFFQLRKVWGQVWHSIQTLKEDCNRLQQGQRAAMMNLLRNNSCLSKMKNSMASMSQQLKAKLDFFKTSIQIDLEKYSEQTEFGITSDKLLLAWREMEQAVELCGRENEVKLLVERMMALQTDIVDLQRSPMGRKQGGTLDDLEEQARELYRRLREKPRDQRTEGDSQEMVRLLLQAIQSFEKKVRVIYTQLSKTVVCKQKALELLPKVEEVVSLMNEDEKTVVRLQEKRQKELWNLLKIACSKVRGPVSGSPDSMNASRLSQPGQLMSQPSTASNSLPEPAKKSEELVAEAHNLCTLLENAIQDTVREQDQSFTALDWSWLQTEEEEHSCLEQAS
Experimental: IκB kinase beta (IKKβ) inhibition was determined using the IKKβ Kinase Assay Kit (BPS Bioscience, San Diego, California, USA). […] Kinase-Glo® MAX (Promega, #V6071, Madison, Wisconsin, USA) was used as the detection reagent, with an incubation time of 15 min. Blank values were subtracted from all measurements. Luminescence was measured with an integration time of 1 s using a Spark Microplate Reader (Tecan, Switzerland).

CAL 27 cell line [2] = test system: CAL 27 cell line; parameters: method as in PMID 32060973, PMID 32099333; settings: CAL 27 cell line ref 46, 47; cited from earlier work
SCC-9 cell line [3] = test system: SCC-9 cell line; parameters: method as in PMID 32628350, PMID 25450696; settings: SCC-9 cell line ref 48, 49; cited from earlier work
FaDu cell line [4] = test system: FaDu cell line; parameters: method as in PMID 32628350; settings: FaDu cell line ref 48; cited from earlier work
Detroit 562 cell line = test system: Detroit 562 cell line; parameters: method as in PMID 32121279, PMID 19317462; settings: Detroit 562 cell line ref 50, 51; cited from earlier work
Hep-2 cell line [5] = test system: Hep-2 cell line; parameters: method as in PMID 23513724; settings: HPV-positive Hep-2 cell line ref 52; cited from earlier work
KB cell line = test system: KB cell line; parameters: method as in PMID 36278627; settings: 48 h of treatment ref 53; cited from earlier work
HGF = test system: HGF; parameters: method as in PMID 34657625; settings: concentration range 0.1–20 μM ref 54; cited from earlier work
A549 cell line = test system: A549 cell line; parameters: method as in PMID 32598409; settings: A549 cell line ref 33; cited from earlier work
CAL 27 cell line [6] = settings: cited from earlier work
CAL 27 cell line [7] = test system: CAL 27 cell line; parameters: method as in PMID 32099333, PMID 25767602; settings: CAL 27 cell line ref 47, 55; cited from earlier work
SCC-9 cell line [8] = test system: SCC-9 cell line; parameters: method as in PMID 25450696; settings: SCC-9 cell line ref 49; cited from earlier work
FaDu cell line [9] = test system: FaDu cell line; parameters: method as in PMID 25767602; settings: FaDu cell line ref 55; cited from earlier work
Hep-2 cell line [10] = settings: Hep-2 cell line ref 56; cited from earlier work
OSCC cells = test system: OSCC cells; parameters: method as in PMID 32391111; settings: Ohnishi et al. ref 57; cited from earlier work

In the case of `COc1cc(/C=C/C(=O)CC(=O)/C=C/c2ccc(O)c(OC)c2)ccc1O` [Curcumin, curcumin], the “Reduction of LPS-induced NF-κB activation” value [1] is reported as “approximately 60%”, the “Cytotoxicity in THP1-Blue NF-κB cells (MTT)” value (THP1-Blue NF-κB cells) is reported as “Neither complex 3, complex 4, nor curcumin exhibited significant cytotoxicity” and the “Inhibition of IKKβ activity” value (IKKβ) is reported as “approximately 30%”. The IC50 (CAL 27 cell line [2]) was 49.9 µM, the IC50 (SCC-9 cell line [3]) was 40.9 µM and the IC50 (FaDu cell line [4]) was 24.8 µM. For the same compound, the Concentration showing cytotoxicity (Detroit 562 cell line) was “around 20 μM”, the IC50 (Hep-2 cell line [5]) was about 50 µM and the IC50 (KB cell line) was 8.84 µg/mL (≈ 24 µM). For the same compound, the “Effect on cell viability” value (HGF) was “did not significantly affect cell viability”, the IC50 (A549 cell line) was 13.1 µM and the “Concentration reducing cell migratory capacity” value (CAL 27 cell line [6]; CAL 27 cell line ref 47, 55) was 50 µM. The “Concentration significantly inhibiting migration” value (CAL 27 cell line [6]; CAL 27 cells, Ma et al. ref 47) was 100 µM, the “Concentration inhibiting colony formation” value (CAL 27 cell line [7]) was at least 12.5 µM and the “Concentration suppressing colony formation” value (SCC-9 cell line [8]) was 40 µM. The “Concentration suppressing colony formation” value (FaDu cell line [9]) was 12.5 µM, the “Concentration with significant inhibition of colony formation and cell migration” value (Hep-2 cell line [10]) was 20 µM and the Concentration inhibiting migration (OSCC cells) was 15 µM.
